Molecules are shown by their SMILES.

The target in this assay is T1, APOL1 (Homo sapiens, UniProt O14791).
T1 sequence (O14791 1-398 S342G/I384M): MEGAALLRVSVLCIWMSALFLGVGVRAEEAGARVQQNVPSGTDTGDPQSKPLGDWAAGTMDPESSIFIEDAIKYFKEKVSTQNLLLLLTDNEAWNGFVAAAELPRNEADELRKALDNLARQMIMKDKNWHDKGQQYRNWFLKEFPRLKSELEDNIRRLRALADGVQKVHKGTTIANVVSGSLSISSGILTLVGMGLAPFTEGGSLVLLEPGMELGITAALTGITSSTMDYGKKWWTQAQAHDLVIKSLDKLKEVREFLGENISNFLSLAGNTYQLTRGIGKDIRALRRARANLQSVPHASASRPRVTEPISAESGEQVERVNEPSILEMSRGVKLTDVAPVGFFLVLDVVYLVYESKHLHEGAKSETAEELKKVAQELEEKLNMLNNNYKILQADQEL
Briefly: MultiTox-Fluor Multiplex Cytotoxicity Assay in tet-inducible APOL1 T-REx-HEK293 cells (cell rescue, ratio of dead to live cells). The assay is classed as cell-based. The settings on record: tet-inducible transgenic APOL1 T-REx-HEK293 cell lines, 50 ng/mL tet, 24 hours; read-out: IP50 (i.e., IC50 for cell proliferation). The essentials:
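T-REx-HEK293 cells with tet-inducible APOL1 were treated with compound (10 μM top, 10-point 3-fold dilution, duplicate) plus 50 ng/mL tetracycline for 24 h at 37° C, in DMEM with 2% tet-free FBS. MultiTox-Fluor protease signals gave a dead/live ratio, normalized to no tet (100% viability) and tet alone (0%).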

`COCCc1ncc(CN2CC[C@]3(C[C@@H]2C)OC[C@H](O)c2cc(Cl)sc23)cn1` [Compound 797]: the IC50 fell in the range of 100 to 500 nM.

Consider `C[C@H]1C[C@@]2(CCN1Cc1ccc(OCC(=O)N3CCOCC3)cc1)OC[C@H](O)c1cc(Cl)sc12` [Compound 798], for which the IC50 is less than 100 nM.

For the compound `CC(=O)Nc1ccc(CN2CC[C@]3(C[C@@H]2C)OC[C@H](O)c2cc(Cl)sc23)cc1` [Compound 799], the IC50 was less than 100 nM.

Regarding `C[C@H]1C[C@@]2(CCN1Cc1cnc(N3CCOCC3)nc1)OC[C@H](O)c1cc(Cl)sc12` [Compound 800], the IC50 was less than 100 nM.

As for `C[C@H]1C[C@@]2(CCN1Cc1cccc(F)c1O)OC[C@H](O)c1cc(Cl)sc12` [Compound 801], the IC50 is 500 to 1000 nM.

Turning to `C[C@H]1C[C@@]2(CCN1Cc1ccc(S(C)(=O)=O)cc1)OC[C@H](O)c1cc(Cl)sc12` [Compound 802], the IC50 fell in the range of 100 to 500 nM.

For `C[C@H]1C[C@@]2(CCN1Cc1cccc(OCCO)c1)OC[C@H](O)c1cc(Cl)sc12` [Compound 803], the IC50 is 100 to 500 nM.

As to `COc1ccc(CN2CC[C@]3(C[C@@H]2C)OC[C@H](O)c2cc(Cl)sc23)cn1` [Compound 804], the IC50 is less than 100 nM.

Take `COc1nccc(CN2CC[C@]3(C[C@@H]2C)OC[C@H](O)c2cc(Cl)sc23)n1` [Compound 805]: the IC50 was in the range of 500 to 1000 nM.

With `COc1cncc(CN2CC[C@]3(C[C@@H]2C)OC[C@H](O)c2cc(Cl)sc23)c1` [Compound 806], the IC50 lay in the range of 100 to 500 nM.

As to `COc1ncc(CN2CC[C@]3(C[C@@H]2C)OC[C@H](O)c2cc(Cl)sc23)cn1` [Compound 807], the IC50 is 100 to 500 nM.

As to `Cc1cccc(CN2CC[C@]3(C[C@@H]2C)OC[C@H](O)c2cc(Cl)sc23)n1` [Compound 808], the IC50 was in the range of 500 to 1000 nM.

For the compound `Cc1cncc(CN2CC[C@]3(C[C@@H]2C)OC[C@H](O)c2cc(Cl)sc23)c1` [Compound 809], the IC50 was 100 to 500 nM.

For `C[C@H]1C[C@@]2(CCN1Cc1ccc(C(=O)N(C)C)cc1)OC[C@H](O)c1cc(Cl)sc12` [Compound 810], the IC50 fell in the range of 100 to 500 nM.

In the case of `C[C@H]1C[C@@]2(CCN1Cc1ccccn1)OC[C@H](O)c1cc(Cl)sc12` [Compound 811], the IC50 lay in the range of 500 to 1000 nM.

As to `CNC(=O)c1cccc(CN2CC[C@]3(C[C@@H]2C)OC[C@H](O)c2cc(Cl)sc23)c1` [Compound 812], the IC50 was 100 to 500 nM.

In the case of `C[C@H]1C[C@@]2(CCN1Cc1cn(C)nn1)OC[C@H](O)c1cc(Cl)sc12` [Compound 813], the IC50 was in the range of 100 to 500 nM.

In the case of `C[C@H]1C[C@@]2(CCN1CCCn1cccn1)OC[C@H](O)c1cc(Cl)sc12` [Compound 815], the IC50 was 500 to 1000 nM.

Turning to `Cc1cncc(N2CCC(CN3CC[C@]4(C[C@@H]3C)OC[C@H](O)c3cc(Cl)sc34)CC2)n1` [Compound 816], the IC50 is 500 to 1000 nM.

With `C[C@H]1C[C@@]2(CCN1Cc1cn[nH]c1)OCC(O)c1cc(Cl)sc12` (stereo partly shown) [Compound 817], the IC50 is less than 100 nM.

Consider `C[C@H]1C[C@@]2(CCN1Cc1cn(CCS(C)(=O)=O)nn1)OCC(=O)c1cc(Cl)sc12` [Compound 822, (2S,4R)-2′-chloro-2-methyl-1-[[1-(2-methylsulfonylethyl)triazol-4-yl]methyl]spiro[piperidine-4,7′-thieno[2,3-c]pyran]-4′-one], for which the IC50 was in the range of 100 to 500 nM.

Take `C[C@H]1C[C@@]2(CCN1Cc1cn(CCS(C)(=O)=O)nn1)OCC(O)c1cc(Cl)sc12` (stereo partly shown) [Compound 823]: the IC50 lay within 100 to 500 nM.

Turning to `C[C@H]1C[C@@]2(CCN1Cc1ccc(NS(=O)(=O)C3CC3)nc1)OCC(O)c1cc(Cl)sc12` (stereo partly shown) [Compound 824], the IC50 was less than 100 nM.

Regarding `C[C@H]1C[C@@]2(CCN1Cc1cnn(CCS(C)(=O)=O)c1)OC[C@](O)(C(F)F)c1cc(Cl)sc12` [Compound 827, (2′S,4S,7R)-2-chloro-4-(difluoromethyl)-2′-methyl-1′-[[1-(2-methylsulfonylethyl)pyrazol-4-yl]methyl]spiro[5H-thieno[2,3-c]pyran-7,4′-piperidine]-4-ol], the IC50 is less than 100 nM.

On to `C[C@H]1C[C@@]2(CCN1Cc1cn[nH]c1)OC[C@](O)(C(F)F)c1cc(Cl)sc12` [Compound 828, (2′S,4S,7R)-2-chloro-4-(difluoromethyl)-2′-methyl-1′-(1H-pyrazol-4-ylmethyl)spiro[5H-thieno[2,3-c]pyran-7,4′-piperidine]-4-ol], for which the IC50 is less than 100 nM.

Turning to `C[C@H]1C[C@@]2(CCN1Cc1cnc(NC(C)(C)CO)nc1)OC[C@](O)(C(F)F)c1cc(Cl)sc12` [Compound 830], the IC50 is less than 100 nM.

For `C[C@H]1C[C@@]2(CCN1Cc1cnn(C)c1)OC[C@](O)(C(F)F)c1cc(Cl)sc12` [Compound 831], the IC50 is less than 100 nM.

Consider `C[C@H]1C[C@@]2(CCN1Cc1cn(CCS(C)(=O)=O)nn1)OC[C@](O)(C(F)F)c1cc(Cl)sc12` [Compound 832], for which the IC50 is less than 100 nM.

Turning to `C[C@H]1C[C@@]2(CCN1Cc1cnn(CC(C)(CO)CO)c1)OC[C@](O)(C(F)F)c1cc(Cl)sc12` [Compound 833], the IC50 is less than 100 nM.

As to `C[C@H]1C[C@@]2(CCN1Cc1cnn(CCS(C)(=O)=O)c1)OC[C@@](O)(C(F)F)c1cc(Cl)sc12` [Compound 834], the IC50 is less than 100 nM.

Take `CO[C@]1(C(F)F)CO[C@@]2(CCN(Cc3cnn(CCS(C)(=O)=O)c3)[C@@H](C)C2)c2sc(Cl)cc21` [Compound 835]: the IC50 was less than 100 nM.

On to `C[C@H]1C[C@@]2(CCN1Cc1cn(CC(O)C(C)(C)O)nn1)OC[C@@](O)(C(F)F)c1cc(Cl)sc12` (stereo partly drawn) [Compound 836, 1-[4-[[(2′S,4R,7R)-2-chloro-4-(difluoromethyl)-4-hydroxy-2′-methyl-spiro[5H-thieno[2,3-c]pyran-7,4′-piperidine]-1′-yl]methyl]triazol-1-yl]-3-methyl-butane-2,3-diol], for which the IC50 was less than 100 nM.

Take `CC(O)Cn1cc(CN2CC[C@]3(C[C@@H]2C)OC[C@](O)(C(F)F)c2cc(Cl)sc23)nn1` (stereo partly shown) [Compound 837]: the IC50 was less than 100 nM.

Regarding `C[C@H]1C[C@@]2(CCN1Cc1cn(CC(C)(C)CO)nn1)OC[C@](O)(C(F)F)c1cc(Cl)sc12` [Compound 838], the IC50 lay in the range of 500 to 1000 nM.

On to `C[C@H]1C[C@@]2(CCN1Cc1cn(CCCS(C)(=O)=O)nn1)OC[C@](O)(C(F)F)c1cc(Cl)sc12` [Compound 839], for which the IC50 was less than 100 nM.

Consider `C[C@H]1C[C@@]2(CCN1Cc1cn(CC(C)(CO)CO)nn1)OC[C@](O)(C(F)F)c1cc(Cl)sc12` [Compound 840], for which the IC50 is less than 100 nM.

On to `C[C@H]1C[C@@]2(CCN1Cc1cn(C3CCOCC3)nn1)OC[C@](O)(C(F)F)c1cc(Cl)sc12` [Compound 841], for which the IC50 is less than 100 nM.

In the case of `CCOC1CO[C@@]2(CCN(Cc3cnn(CCS(C)(=O)=O)c3)[C@@H](C)C2)c2sc(Cl)cc21` (stereo partly shown) [Compound 844], the IC50 lay within 100 to 500 nM.

With `CC(C)OC1CO[C@@]2(CCN(Cc3cnn(CCS(C)(=O)=O)c3)[C@@H](C)C2)c2sc(Cl)cc21` (stereo partly shown) [Compound 845], the IC50 lay within 100 to 500 nM.

Consider `[2H]C([2H])([2H])OC1CO[C@@]2(CCN(Cc3cnn(CCS(C)(=O)=O)c3)[C@@H](C)C2)c2sc(Cl)cc21` (stereo partly shown) [Compound 846], for which the IC50 was less than 100 nM.

As to `CC(=O)OC1CO[C@@]2(CCN(Cc3cnn(CCS(C)(=O)=O)c3)[C@@H](C)C2)c2sc(Cl)cc21` (stereo partly drawn) [Compound 847, [(2′S, 7R)-2-chloro-2′-methyl-1′-[[1-(2-methylsulfonylethyl)pyrazol-4-yl]methyl]spiro[4,5-dihydrothieno[2,3-c]pyran-7,4′-piperidine]-4-yl]acetate], the IC50 was less than 100 nM.

`C[C@H]1C[C@@]2(CCN1Cc1cnn(C)c1)OCC(C)(O)c1cc(Cl)sc12` (stereo partly drawn) [Compound 848, (2′S, 7R)-2-chloro-2′,4-dimethyl-1′-[(1-methylpyrazol-4-yl)methyl]spiro[5H-thieno[2,3-c]pyran-7,4′-piperidine]-4-ol]: the IC50 is less than 100 nM.

As to `C[C@H]1C[C@@]2(CCN1Cc1cnn(C)c1)OCC(O)(c1ccccc1)c1cc(Cl)sc12` (stereo partly drawn) [Compound 849, (2′S,7R)-2-chloro-2′-methyl-1′-[(1-methylpyrazol-4-yl)methyl]-4-phenyl-spiro[5H-thieno[2,3-c]pyran-7,4′-piperidine]-4-ol], the IC50 lay within 100 to 500 nM.

Regarding `C[C@H]1C[C@@]2(CCN1Cc1cnn(C)c1)OCC(O)(c1ccccc1)c1cc(Cl)sc12` (stereo partly drawn) [Compound 850, (2′S,7R)-2-chloro-2′-methyl-1′-[(1-methylpyrazol-4-yl)methyl]-4-phenyl-spiro[5H-thieno[2,3-c]pyran-7,4′-piperidine]-4-ol], the IC50 lay in the range of 100 to 500 nM.

In the case of `C[C@H]1C[C@@]2(CCN1Cc1cnn(CCS(C)(=O)=O)c1)OCC(O)(C(F)(F)F)c1cc(Cl)sc12` (stereo partly drawn) [Compound 852, (2′S,7R)-2-chloro-2′-methyl-1′-[[1-(2-methylsulfonylethyl)pyrazol-4-yl]methyl]-4-(trifluoromethyl)spiro[5H-thieno[2,3-c]pyran-7,4′-piperidine]-4-ol], the IC50 is less than 100 nM.

Take `C[C@H]1C[C@@]2(CCN1Cc1cnn(CCS(C)(=O)=O)c1)OCC(N1C(=O)c3ccccc3C1=O)c1cc(Cl)sc12` (stereo partly drawn) [Compound 853, 2-[(2′S, 7R)-2-chloro-2′-methyl-1′-[[1-(2-methylsulfonylethyl)pyrazol-4-yl]methyl]spiro[4,5-dihydrothieno[2,3-c]pyran-7,4′-piperidine]-4-yl]isoindoline-1,3-dione]: the IC50 lay in the range of 100 to 500 nM.

The values above are taken from patent US20250171459A1, “2-METHYL-4',5'-DIHYDROSPIRO[PIPERIDINE-4,7'-THIENO[2,3-C]PYRAN] DERIVATIVES AS INHIBITORS OF APOL1 AND METHODS OF USING SAME” (Vertex Pharmaceuticals Incorporated, priority 2022, published 2025).
